Results reported in patent publication US20080275135A1, “Resorcinol Derivatives and Their Use for Lowering Blood Pressure” (priority 2004, published 2008).
“Also recorded” adds a separate entry of the source.

Tests used:
[1] = system: rat aortic rings; conditions: literature, Offertaler et al. 2003; cited from earlier work
[2] = Blood pressure in anesthetized rats after i.v. bolus; assay type: in vivo, Sabra rats
Experimental: The protocol for testing blood pressure was applied essentially as previously described [Shochina, M. and Horowitz, M. (1989) J. Therm. Biol. 14, 109 113]. Adult male Sabra rats weighing between 225 to 250 g had their femoral vein cannulated for intravenous (i.v.) drug administration. Anesthesia was induced by the intraperitoneal (i.p.) injection of pentobarbital sodium 6%, 60 mg/kg. The femoral artery was cannulated and a catheter (PE 10 cannulae) was connected to a pressure transducer for continuous monitoring of blood pressure with a physiograph (AcKnowledge program). After a 30 minute stabilization period, the animals were injected with either vehicle (sahine:ethanol:Emulphor® 18:1:1) or the drug (Compound 1, as described above, varying from 1 to 10 mg/kg) injected in bolus i.v. in volumes ≧500 μl. The changes in blood pressure were monitored for 60 minutes. […] The hypotensive activity of Compound 1 leads the way to a new class of atypical cannabinoids with no psychotropic activity and with a mechanism of action differing from the anti-hypertensive drugs known to date.

[3] = molecular target: T1, cannabinoid receptor CB2 (Homo sapiens, UniProt P34972); assay: Cannabinoid receptor binding, [3H]HU-243 displacement, transfected cells; conditions: data not shown
T1 construct: expressed in transfected cells
T1 sequence (P34972 whole entry): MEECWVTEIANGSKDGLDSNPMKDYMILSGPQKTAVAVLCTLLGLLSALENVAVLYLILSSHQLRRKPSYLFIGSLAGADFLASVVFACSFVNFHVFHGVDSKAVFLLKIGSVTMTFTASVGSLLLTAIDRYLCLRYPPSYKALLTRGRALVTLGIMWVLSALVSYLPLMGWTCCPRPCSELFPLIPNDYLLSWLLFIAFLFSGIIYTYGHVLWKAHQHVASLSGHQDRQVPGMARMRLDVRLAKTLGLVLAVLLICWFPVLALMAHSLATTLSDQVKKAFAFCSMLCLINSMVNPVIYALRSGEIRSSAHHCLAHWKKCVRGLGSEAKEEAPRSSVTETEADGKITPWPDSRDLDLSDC
Experimental: (§1) The protocol for cannabinoid receptor binding has been previously described [Devane W. A. et al. (1992) Science 258, 1946-1949]. […] Bound and free radioligand were separated by centrifugation. The data were normalized to 100% of specific binding, which was determined with 50 nM unlabeled HU-243. The Ki value was determined using the program GraphPad Prism (Version 3.02) which follows the Cheng-Prusoff equation. A sigmoid dose-response (variable slope) built-in equation in this Prism program was used to fit the curves.

[4] = molecular target: T2, cannabinoid receptor CB1 (Rattus norvegicus, UniProt P20272); assay: Cannabinoid receptor binding, [3H]HU-243 displacement, synaptosomal membranes; conditions: data not shown
T2 construct: from tissue
T2 sequence (P20272 whole entry): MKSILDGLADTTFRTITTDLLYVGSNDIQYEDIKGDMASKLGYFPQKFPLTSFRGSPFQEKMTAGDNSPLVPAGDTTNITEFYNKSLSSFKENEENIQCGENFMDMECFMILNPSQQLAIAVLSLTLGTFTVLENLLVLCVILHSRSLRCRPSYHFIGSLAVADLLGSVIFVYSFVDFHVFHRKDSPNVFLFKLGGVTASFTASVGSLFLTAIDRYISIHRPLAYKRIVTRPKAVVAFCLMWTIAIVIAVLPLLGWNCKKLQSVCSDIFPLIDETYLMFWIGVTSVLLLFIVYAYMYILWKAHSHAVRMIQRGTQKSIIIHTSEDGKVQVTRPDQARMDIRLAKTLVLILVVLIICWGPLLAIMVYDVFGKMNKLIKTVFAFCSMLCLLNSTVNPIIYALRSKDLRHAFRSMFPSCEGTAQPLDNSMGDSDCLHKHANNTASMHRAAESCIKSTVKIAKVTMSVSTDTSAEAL
Experimental: as §1

[5] = system: rat aortic rings; assay: Relaxation of phenylephrine pre-contracted aortic rings; parameters: species or system Sabra rats; conditions: for maximum vasorelaxation: FIG. 2A
Experimental: Abdominal aortic rings of male Sabra rats of 300 g average body weight were obtained from the animal facility of the Hebrew University of Jerusalem, campus Ein Kerem, Jerusalem, Israel. The animals were anaesthetized by an intra-peritoneal injection of pentobarbital (50 mg kg^−1). After thoracotomy, the aorta was excised, transferred to a dish filled with Krebs-Henseleit buffer (composition in mM: NaCl 150.0, KCl 5.4, MgSO4 1.17, NaH2 PO4 1.18, NaHCO3 6.0, CaCl2 1.0, HEPES 20.0, glucose 5.5, pH 7.4), cleared of periadventitial tissue, and cut into ring segments (3 mm in length). Only segments of the abdominal aorta were used. Two stainless-steel hooks were carefully passed through the lumen of each ring. One hook was connected to an isometric force transducer (BIOPAC Instruments, Goleta, Calif.) to measure tension in the vessels. The rings were placed in a 10-ml organ bath, gassed with 5% CO2 in O2 and maintained at 37° C. The rings were stretched until an optimal basal tension of 1.0 g. After this tension was achieved they were allowed to equilibrate for 60 minutes with the bath fluid being changed every 15-20 min. Baseline tension usually stabilized within 60 min of mounting, during which time there were four replacements of bathing solution. The segment was then pre-contracted by 5 μM phenylephrine. […] The levels of relaxation were then measured. The endothelial function was assessed by testing the relaxant effect of acetylcholine (10 nM-[…]) on aortic rings pre-contracted with phenylephrine. Failure of acetylcholine to elicit relaxation of aortic rings previously subjected to rubbing of the intimal surface was taken as evidence of endothelium removal. Concentration-response curves were generated by cumulative addition of the agonist. Whenever antagonists (PTX 0.5 μg/ml, SR-141716 A, SR-144528 or 10 μM of 0-1918) were used, they were added 20 min before the agonist (FIG. 2B). All experiments were conducted with aluminum foil-covered organ bath to prevent light-induced degradation of the drugs.

[6] = molecular target: T2, cannabinoid receptor CB1; conditions: high affinity receptor probe; read-out: dissociation constant; cited from earlier work

C=C(C)[C@@H]1CCC(C)=C[C@H]1c1c(O)cc(O)cc1CCCCC (relative stereo) [Abn-CBD, (−)-4-(3-3,4-trans-p-menthadien-1,8)-yl-olivetol]
antagonism by O-1918 [1]: antagonized by 0-1918

CCCCCCC(C)(C)c1cc(O)c(C/C=C(\C)CCC=C(C)C)c(O)c1 [Compound 1, 2-geranyl-5-(1,1-dimethylheptyl)-resorcinol]
effect on blood pressure (BP) ([2]; 2.5 mg/kg i.v., FIG. 1): Reduction in blood pressure is already observed
change in heart rate ([2]; 5 mg/kg i.v.): without causing change in the heart rate
effect on blood pressure (BP) ([2]; 5 mg/kg i.v.): caused hypotension
effect on blood pressure (BP) ([2]; 5 mg/kg i.v., listed as CBG-DMH): the effect becomes much more pronounced
mean systolic blood pressure over 60 minutes ([2]; 1 to 10 mg/kg bolus i.v., FIG. 1): clear reduction of the systolic blood pressure
antagonism of hypotensive effect by CBD ([2]; CBD in similar doses): antagonized by CBD
binding to CB2 [3]: no binding
binding to CB1 [4]: no binding
antagonism of relaxation by O-1918 ([5]; 10 μM O-1918 added 20 min before agonist, FIG. 2B, listed as CBG-DMH): did not result in antagonism; also recorded: does not antagonize
relaxation of pre-contracted segments ([5]; cumulative doses, 5 μM phenylephrine pre-contraction): led to relaxation of the contracted segments
maximum vasorelaxation ([5]; denuded artery): 25%
maximum vasorelaxation ([5]; intact artery): 55%
aortic vasorelaxant effect in presence of pertussis toxin ([5]; pertussis toxin 0.5 μg/ml, data not shown): inhibited in the presence of pertussis toxin
vasodilator function ([5]; preliminary data): functions as a vasodilator

CCCCCCC(C)(C)c1cc(O)c2c(c1)OC(C)(C)[C@@H]1CC[C@@H](CO)C[C@@H]21 [[^3H]HU-243]
Kd [6]: 0.045 nM
